Values quoted from earlier work as cited in patent publication US10285382B2 (priority 2017, dated 2019).
Where two headings read alike, the source gives them in different places.

Columns and labels:
Conditions in all cases: cited from earlier work
Salmonella = tested on: Salmonella
broiler eggs = tested on: broiler eggs
shell surface bacteria = tested on: shell surface bacteria
[1] = dipping eggs in 6% H2O2 solution twice, Padron (1995)

## OO [H2O2, hydrogen peroxide]
Salmonella; […] solution applied with a vacuum and a surfactant, Cox et al.
  treated eggs remaining contaminated: 30%
Salmonella; [1]
  reduction of the number of Salmonella in eggshell membranes: 95%
  reduction of the numbers of positive eggs: 55%
Broiler eggs; broiler eggs, […] fogged, Bailey et al. (1996)
  effect on hatchability: did not significantly reduce, or improve
Broiler eggs; in vivo
  effect on hatchability: no adverse effect
Shell surface bacteria; 3% solution combined with ultraviolet light, Wells et al. (2010)
  log reduction in bacterial counts (cfu/egg): ≤ 3 log
Shell surface bacteria; Sheldon and Brake (1991)
  H2O2 concentration required to disinfect shell surfaces: 5 % (vol/vol)
